Non-standard residues stand in square brackets, D forms with d. Residues, ends and D or L forms follow the SMILES beside them. *: point of attachment. Arg(NO2) = N=C(NCCC[C@H](N)C(=O)O)N[N+](=O)[O-]; 2Nal = N[C@@H](Cc1ccc2ccccc2c1)C(=O)O; Tos = Cc1ccc(S(=O)(=O)*)cc1; Cbz = O=C(OCc1ccccc1)*; Boc = CC(C)(C)OC(=O)*; OBn = c1ccc(CO*)cc1; Bn = c1ccc(C*)cc1; OtBu = CC(C)(C)O*
Target: T1, ChT-L activity of 20S proteasome (Mus musculus, UniProt O09061+O55234)
T1 construct: 20S proteasome purified from mouse liver; from tissue; host or cells: mouse liver
Assay: Assay for ChT-L activity of 20S proteasome with fluorogenic peptide Suc-Leu-Leu-Val-Tyr-AMC
Type: biochemical
Conditions: for IC50: 20S proteasome purified from mouse liver (1 μg), 50 μM Suc-Leu-Leu-Val-Tyr-AMC, 20 mM Tris-HCl pH 7.8, 37 °C, 1 h; for fold higher ChT-L inhibitory activity than the other Cbz series compounds: comparison within the Cbz series; for ChT-L inhibitory activity compared with the control MG132: result in words, versus positive control MG132
Description: Inhibitory activities of peptide aldehydes on the 20S proteasome are assayed in vitro [41]. MG132 was used as the positive control (Table 1).
Assays for proteasome activities. The enzymatic activities of the proteasome were assayed using fluorogenic peptides: Suc-Leu-Leu-Val-Tyr-AMC (Suc represents succinyl and AMC represents […], obtained from Sigma) for ChT-L activity. 20S proteasome purified from mouse liver (1 μg) was incubated with various concentrations of compounds and 50 μM fluorogenic peptides in 20 mM Tris-HCl pH 7.8 (100 μL) at 37 °C for 1 h, respectively. The fluorescence of released AMC was measured by a spectrofluorimeter (Fluostar OPTIMA, BMG Germany) at excitation/emission wavelengths of 380/440 nm and 335/410 nm, respectively. 0.1% DMSO was used as solvent control. Compared with the fluorescence of solvent control, an inhibition rate was calculated and thereafter the IC50 value was deduced.

Molecule	IC50	fold higher ChT-L inhibitory activity than the other Cbz series compounds	ChT-L inhibitory activity compared with the control MG132
CC(C)C[C@@H](C=O)NC(=O)[C@H](Cc1ccccc1)NC(=O)[C@H](CCC(=O)OCc1ccccc1)NC(=O)OC(C)(C)C [Compound 3k, Boc-L-Glu(OBzl)-L-Phe-L-Leucinal] (Boc-Glu(OBn)-Phe-Leu-aldehyde)	7140 ± 1930 nM		
CC(C)C[C@@H](C=O)NC(=O)[C@H](Cc1ccccc1)NC(=O)[C@H](CC(=O)OCc1ccccc1)NC(=O)OC(C)(C)C [Compound 3i, Boc-L-Asp(OBzl)-L-Phe-L-Leucinal] (Boc-Asp(OBn)-Phe-Leu-aldehyde)	4830 ± 2300 nM		
CC(C)CC(C=O)NC(=O)C(CC(C)C)NC(=O)C(Cc1ccc(OCc2ccccc2)cc1)NC(=O)OC(C)(C)C [Compound 3q, Boc-L-Tyr(OBn)-L-Leu-L-Leucinal] (Boc-Tyr(Bn)-Leu-Leu-aldehyde; configuration not given here)	> 50000 nM		
CC(C)CC(C=O)NC(=O)C(Cc1ccccc1)NC(=O)C(CC(=O)OC(C)(C)C)NC(=O)OCc1ccccc1 [Compound 3a, Cbz-L-Asp(OtBu)-L-Phe-L-Leucinal] (Cbz-Asp(OtBu)-Phe-Leu-aldehyde; configuration not given here)	210 ± 14 nM		
CC(C)C[C@@H](C=O)NC(=O)[C@H](CC(C)C)NC(=O)[C@H](CCC(=O)OC(C)(C)C)NC(=O)OCc1ccccc1 [Compound 3d, Cbz-L-Glu(OtBu)-L-leu-L-Leucinal] (Cbz-Glu(OtBu)-Leu-Leu-aldehyde)	89 ± 20 nM	about 10 fold	much higher activities than the control MG132
CC(C)C[C@@H](C=O)NC(=O)[C@H](CC(C)C)NC(=O)[C@H](CCCNC(N)=N[N+](=O)[O-])NC(=O)OCc1ccccc1 [Compound 3f, Cbz-L-Arg(NO2)-L-leu-L-Leucinal] (Cbz-[Arg(NO2)]-Leu-Leu-aldehyde)	> 50000 nM		
Cc1ccc(S(=O)(=O)NC(=N)NCCCC(NC(=O)OCc2ccccc2)C(=O)NC(CC(C)C)C(=O)NC(C=O)CC(C)C)cc1 [Compound 3g, Cbz-L-Arg(Tos)-L-leu-L-Leucinal] (Cbz-Arg(Tos)-Leu-Leu-aldehyde; configuration not given here)	> 50000 nM		
CC(C)C[C@@H](C=O)NC(=O)[C@H](CC(C)C)NC(=O)[C@H](Cc1ccc2ccccc2c1)NC(=O)OCc1ccccc1 [Compound 3h, Cbz-L-(2-Naphthyl)alanine-L-Leu-L-Leucinal] (Cbz-[2Nal]-Leu-Leu-aldehyde)	410 ± 82 nM		
CC(C)CC(C=O)NC(=O)C(CC(C)C)NC(=O)C(CC(=O)OC(C)(C)C)NC(=O)OCc1ccccc1 [Compound 3b, Cbz-L-Asp(OtBu)-L-Leu-L-Leucinal] (Cbz-Asp(OtBu)-Leu-Leu-aldehyde; configuration not given here)	200 ± 35 nM		
CC(C)CC(C=O)NC(=O)C(CC(C)C)NC(=O)C(COCc1ccccc1)NC(=O)OC(C)(C)C [Compound 3o, Boc-L-Ser(OBn)-L-Leu-L-Leucinal] (Boc-Ser(Bn)-Leu-Leu-aldehyde; configuration not given here)	50 ± 2 nM		much higher activities than the control MG132
CC(C)C[C@@H](C=O)NC(=O)[C@H](Cc1ccccc1)NC(=O)[C@H](CCC(=O)OC(C)(C)C)NC(=O)OCc1ccccc1 [Compound 3c, Cbz-L-Glu(OtBu)-L-Phe-L-Leucinal] (Cbz-Glu(OtBu)-Phe-Leu-aldehyde)	28 ± 6 nM	about 10 fold	much higher activities than the control MG132
CC(C)CC(C=O)NC(=O)C(CC(C)C)NC(=O)C(CC(=O)OCc1ccccc1)NC(=O)OC(C)(C)C [Compound 3j, Boc-L-Asp(OBzl)-L-Leu-L-Leucinal] (Boc-Asp(OBn)-Leu-Leu-aldehyde; configuration not given here)	20300 ± 2050 nM		
CC(C)CC(C=O)NC(=O)C(CC(C)C)NC(=O)C1CCCN1C(=O)OC(C)(C)C [Compound 3n, Boc-L-Pro-L-Leu-L-Leucinal] (Boc-Pro-Leu-Leu-aldehyde; configuration not given here)	> 50000 nM		
Cbz-L-Phe-L-leu-L-Leucinal [Compound 3e]	850 ± 47 nM		
CC(C)C[C@@H](C=O)NC(=O)[C@H](CC(C)C)NC(=O)[C@H](CCC(=O)OCc1ccccc1)NC(=O)OC(C)(C)C [Compound 3l, Boc-L-Glu(OBzl)-L-Leu-L-Leucinal] (Boc-Glu(OBn)-Leu-Leu-aldehyde)	> 50000 nM		
CC(C)CC(C=O)NC(=O)C(Cc1ccccc1)NC(=O)C1CCCN1C(=O)OC(C)(C)C [Compound 3m, Boc-L-Pro-L-Phe-L-Leucinal] (Boc-Pro-Phe-Leu-aldehyde; configuration not given here)	> 50000 nM		
CC(C)CC(C=O)NC(=O)C(CC(C)C)NC(=O)C(NC(=O)OC(C)(C)C)C(C)OCc1ccccc1 [Compound 3p, Boc-L-Thr(OBn)-L-Leu-L-Leucinal] (Boc-Thr(Bn)-Leu-Leu-aldehyde; configuration not given here)	290 ± 21 nM		
CC(C)C[C@@H](C=O)NC(=O)[C@H](CC(C)C)NC(=O)[C@H](CC(C)C)NC(=O)OCc1ccccc1 [MG132, Cbz-L-Leu-L-Leu-L-Leucinal, reference compound] (Cbz-Leu-Leu-Leu-aldehyde)	280 ± 60 nM		

— article PMC6264673, “Synthesis and SAR Study of Novel Peptide Aldehydes as Inhibitors of 20S Proteasome” (Molecules, 2011)
